Converted amounts (≈) assume the structure as drawn.
Columns and labels:
MRSA USA300 = assay: MIC assay in the presence of sheep serum; assay type: cell-based, Staphylococcus aureus; details: MRSA USA300, TSB + 0.002% p80 + 50% sheep serum
Procedure, shortened: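 Broth microdilution MIC per CLSI against MRSA USA300, 2-fold compound dilutions, 10^6 CFU/mL inoculum (pre-mixing), polypropylene plates, 37 °C for 24 h with shaking. Medium was TSB + 0.002% polysorbate 80 + 50% sheep serum; MIC as median of at least triplicates, in μg/mL.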

VRS1 = assay: MIC assay, VISA and VRSA panel; assay type: cell-based, Staphylococcus aureus
Protocol: (§1) The antibacterial activity of the compounds was tested against a panel of bacteria, including Gram-positive bacteria (S. aureus ATCC29213, S. aureus USA300, S. aureus LIM-2, NR-45881, S. aureus HIP13419, NR-46413, E. faecium E155, E. faecium E7314, E. faecium E980, E. faecalis E1246, E. faecalis E7406 and S. pneumonia 153). The antibacterial activity of the compounds was further tested against S. aureus NY-155, NR-46236, S. aureus HIP12864, NR-46074, S. aureus 880 (BR-VRSA), NR-49120, E. faecalis E1246, E. faecalis E7604, as well as some Gram-negative bacteria (Escherichia coli and Klebsiella pneumoniae). Minimum inhibitory concentrations (MICs) in μg/mL were performed according to the CLSI guidelines. From glycerol stocks, bacterial strains were cultured on blood agar plates and incubated at 37° C. for 18 h. A single colony was transferred to tryptic soy broth (TSB) with 0.002% polysorbate 80 (p80). For the Enterococcus, VISA and VRSA strains, the cultures were grown at 37° C. until the optical density of the suspension reached a level equivalent to the 0.5 McFarland standard. The bacterial suspensions were diluted in TSB with 0.002% p80 to reach a bacterial cell density of 10^6 CFU/mL. In case of the other (vancomycin-sensitive) S. aureus strains, the direct colony suspension method was used. For these strains, after transfer of the colonies to TSB with 0.002% p80, they were immediately diluted to 10^6 CFU/mL, instead of incubated prior to this dilution. In the case of S. pneumonia, direct colony suspension was used by immediately suspending multiple colonies from fresh blood agar plates in TSB+0.002% p80 to an OD600 of 0.5 and subsequent dilution to 10^6 CFU mL^−1 in TSB+0.002% p80+5% lysed horse blood. Antibiotic dilutions for this strains were also made in TSB+0.002% p80+5% lysed horse blood. Both agar and microplates containing S. pneumonia were incubated at 37° C. with 5% CO2 for 24 h with constant shaking (600 rpm). […] The cultures were grown to exponential phase (OD600=0.5) at 37° C. […] In polypropylene 96-well microtiter plates, test compounds were added in biological triplicates and serial diluted 2-fold by transfer and mixing from one well to the next to achieve a final volume of 50 μL per well. An equal volume of bacterial suspension (10^6 CFU mL^−1) was added to the wells. The plates were sealed with breathable membranes and incubated at 37° C. for 24 h with constant shaking (600 rpm). In polypropylene microtiter plates, 100 μL of the test compounds was added to the first row in biological triplicates, and 50 μL of media was added to the other wells. The compounds were subjected to serial dilution by transfer and mixing of 50 μL from one well to the next. Subsequently, 50 μL of bacterial suspension (10^6 CFU/mL) was added to the wells. The plates were sealed with breathable membranes and incubated at 37° C. for 24 h with constant shaking (600 rpm). Positive growth control consisted of wells with bacterial suspension and without antibiotic. Negative growth control consisted of solely media without bacterial suspension or antibiotic. The MICs were determined from the median of a minimum of triplicates.

VRS3a = assay: MIC assay, VISA and VRSA panel; assay type: cell-based, Staphylococcus aureus
Protocol: as §1

NRS63SH = assay: MIC assay, VISA and VRSA panel; assay type: cell-based, Staphylococcus aureus
Protocol: as §1

VRS4 = assay: MIC assay, VISA and VRSA panel; assay type: cell-based, Staphylococcus aureus
Protocol: as §1

VRS9 = assay: MIC assay, VISA and VRSA panel; assay type: cell-based, Staphylococcus aureus
Protocol: as §1

VRSA3b = assay: MIC assay, VISA and VRSA panel; assay type: cell-based, Staphylococcus aureus
Protocol: as §1

VRS11b = assay: MIC assay, VISA and VRSA panel; assay type: cell-based, Staphylococcus aureus
Protocol: as §1

NRS19 = assay: MIC assay, VISA and VRSA panel; assay type: cell-based, Staphylococcus aureus
Protocol: as §1

VRS8 = assay: MIC assay, VISA and VRSA panel; assay type: cell-based, Staphylococcus aureus
Protocol: as §1

[1] = tested on: HepG2 human hepatocellular carcinoma cells; assay: Cytotoxicity assay for HepG2 (MTT); assay type: cell-based; details: MTT, HepG2, 24 h, 10% FBS, n = 3
Protocol: (§2) Mammalian cytotoxicity assays were performed by Cyprotex. Cytotoxicity was assessed using the MTT assay. Briefly, HepG2 human hepatocellular carcinoma cells (100 μL per well) were plated on black-walled clear-bottomed polystyrene 96-well tissue culture treated plates 24 h prior to dosing the cells. The cells were dosed with test compound (dissolved in 0.5% DMSO in growth media containing 10% FBS) at a range of concentrations (0.04 μM, 0.1 μM, 0.4 μM, 1 μM, 4 μM, 10 μM, 40 μM, 100 μM). After 23 h period the cells were loaded with the MTT dye (yellow; 3-(4,5-dimethyl-2-thiazolyl)-2,5-diphenyl-2H-tetrazolium bromide) followed by an additional 1 h incubation (resulting in a total incubation time with antibiotics of 24 h). Subsequently, the plates are dried and solubilized in DMSO followed by scanning at 570 nm using a microplate absorbance reader. Cell viability is determined by conversion of the soluble MTT to insoluble formazan (purple) by mitochondrial […] in live cells. Production of formazan indicates […]. Carbonyl cyanide 3-chlorophenylhydrazone is used as no response control and chlorpromazine is used as control known to be cytotoxic. Solvent control wells (0.5% DMSO in growth media containing 10% FBS) are then used to determine significance limits for wells that have a greater than expected fraction of low or high responders. The minimum effective concentration is determined from the lowest concentration whose mean value exceeds the significance level, provided either a clear dose-response relationship is observed, or at least two consecutive concentration points are above the significance level. AC50 values are also determined provided a clear dose-response relationship is observed. Experiment was performed in triplicates.

[2] = Cytotoxicity assay for HepG2 (MTT); assay type: cell-based, human; details: human; MTT, HepG2, 24 h, 10% FBS, n = 3; read-out: AC50
Protocol: as §2

CCCCCCCNC(N)=Nc1ccc(CN[C@@]2(C)C[C@H](O[C@H]3[C@H](Oc4c5cc6cc4Oc4ccc(cc4Cl)[C@@H](O)[C@@H](NC(=O)[C@@H](CC(C)C)NC)C(=O)N[C@@H](CC(N)=O)C(=O)N[C@H]6C(=O)N[C@H]4C(=O)N[C@H](C(=O)N[C@H](C(=O)O)c6cc(O)cc(O)c6-c6cc4ccc6O)[C@H](O)c4ccc(c(Cl)c4)O5)O[C@H](CO)[C@@H](O)[C@@H]3O)O[C@@H](C)[C@H]2O)cc1 [Compound 5]
MIC (MRSA USA300): 0.031 mg/L
MIC (VRS1; strain VRS1): 16 mg/L (≈ 9.44 µM)
MIC (VRS3a; strain VRS3a): 0.25 mg/L (≈ 0.148 µM)
MIC (NRS63SH; strain NRS63SH): 8 mg/L (≈ 4.72 µM)
MIC (VRS4; strain VRS4): 8 mg/L (≈ 4.72 µM)
MIC (VRS9; strain VRS9): 16 mg/L (≈ 9.44 µM)
MIC (VRSA3b; strain VRSA3b): 1 mg/L (≈ 0.59 µM)
MIC (VRS11b; strain VRS11b): 16 mg/L (≈ 9.44 µM)
MIC (NRS19; strain NRS19): 0.063 mg/L (≈ 0.0372 µM)
MIC (VRS8; strain VRS8): 16 mg/L (≈ 9.44 µM)
AC50 [1]: > 100 µM

CCCCCCCCNC(N)=Nc1ccc(CN[C@@]2(C)C[C@H](O[C@H]3[C@H](Oc4c5cc6cc4Oc4ccc(cc4Cl)[C@@H](O)[C@@H](NC(=O)[C@@H](CC(C)C)NC)C(=O)N[C@@H](CC(N)=O)C(=O)N[C@H]6C(=O)N[C@H]4C(=O)N[C@H](C(=O)N[C@H](C(=O)O)c6cc(O)cc(O)c6-c6cc4ccc6O)[C@H](O)c4ccc(c(Cl)c4)O5)O[C@H](CO)[C@@H](O)[C@@H]3O)O[C@@H](C)[C@H]2O)cc1 [Compound 6]
MIC (MRSA USA300): 0.063 mg/L

CCCCCCCCCNC(N)=Nc1ccc(CN[C@@]2(C)C[C@H](O[C@H]3[C@H](Oc4c5cc6cc4Oc4ccc(cc4Cl)[C@@H](O)[C@@H](NC(=O)[C@@H](CC(C)C)NC)C(=O)N[C@@H](CC(N)=O)C(=O)N[C@H]6C(=O)N[C@H]4C(=O)N[C@H](C(=O)N[C@H](C(=O)O)c6cc(O)cc(O)c6-c6cc4ccc6O)[C@H](O)c4ccc(c(Cl)c4)O5)O[C@H](CO)[C@@H](O)[C@@H]3O)O[C@@H](C)[C@H]2O)cc1 [Compound 7]
MIC (MRSA USA300): 0.063 mg/L

CCCCCCN(CCCCCC)C(N)=Nc1ccc(CN[C@@]2(C)C[C@H](O[C@H]3[C@H](Oc4c5cc6cc4Oc4ccc(cc4Cl)[C@@H](O)[C@@H](NC(=O)[C@@H](CC(C)C)NC)C(=O)N[C@@H](CC(N)=O)C(=O)N[C@H]6C(=O)N[C@H]4C(=O)N[C@H](C(=O)N[C@H](C(=O)O)c6cc(O)cc(O)c6-c6cc4ccc6O)[C@H](O)c4ccc(c(Cl)c4)O5)O[C@H](CO)[C@@H](O)[C@@H]3O)O[C@@H](C)[C@H]2O)cc1 [Compound 12]
MIC (MRSA USA300): 0.063 mg/L
MIC (VRS1; strain VRS1): 4 mg/L (≈ 2.27 µM)
MIC (VRS3a; strain VRS3a): <0.016 mg/L
MIC (NRS63SH; strain NRS63SH): 2 mg/L (≈ 1.13 µM)
MIC (VRS4; strain VRS4): 2 mg/L (≈ 1.13 µM)
MIC (VRS9; strain VRS9): 4 mg/L (≈ 2.27 µM)
MIC (VRSA3b; strain VRSA3b): 0.25 mg/L (≈ 0.142 µM)
MIC (VRS11b; strain VRS11b): 4 mg/L (≈ 2.27 µM)
MIC (NRS19; strain NRS19): 0.25 mg/L (≈ 0.142 µM)
MIC (VRS8; strain VRS8): 4 mg/L (≈ 2.27 µM)
AC50 [1]: > 100 µM

CN[C@H](CC(C)C)C(=O)N[C@H]1C(=O)N[C@@H](CC(N)=O)C(=O)N[C@H]2C(=O)N[C@H]3C(=O)N[C@H](C(=O)N[C@H](C(=O)O)c4cc(O)cc(O)c4-c4cc3ccc4O)[C@H](O)c3ccc(c(Cl)c3)Oc3cc2cc(c3O[C@@H]2O[C@H](CO)[C@@H](O)[C@H](O)[C@H]2O[C@H]2C[C@](C)(NCc3ccc(N=C(N)NC/C=C(\C)CCC=C(C)C)cc3)[C@H](O)[C@H](C)O2)Oc2ccc(cc2Cl)[C@H]1O [Compound 14]
MIC (MRSA USA300): 0.063 mg/L

CCCCCCCCCCNCCN[C@@]1(C)C[C@H](O[C@H]2[C@H](Oc3c4cc5cc3Oc3ccc(cc3Cl)[C@@H](O)[C@@H](NC(=O)[C@@H](CC(C)C)NC)C(=O)N[C@@H](CC(N)=O)C(=O)N[C@H]5C(=O)N[C@H]3C(=O)N[C@H](C(=O)N[C@H](C(=O)O)c5cc(O)c(CNCP(=O)(O)O)c(O)c5-c5cc3ccc5O)[C@H](O)c3ccc(c(Cl)c3)O4)O[C@H](CO)[C@@H](O)[C@@H]2O)O[C@@H](C)[C@H]1O [Telavancin, reference compound]
MIC (VRS1; Staphylococcus aureus): 8 mg/L (≈ 4.56 µM)
MIC (VRS3a; Staphylococcus aureus): 1 mg/L (≈ 0.57 µM)
MIC (NRS63SH; Staphylococcus aureus): 8 mg/L (≈ 4.56 µM)
MIC (VRS4; Staphylococcus aureus): 4 mg/L (≈ 2.28 µM)
MIC (VRS9; Staphylococcus aureus): 16 mg/L (≈ 9.11 µM)
MIC (VRSA3b; Staphylococcus aureus): 4 mg/L (≈ 2.28 µM)
MIC (VRS11b; Staphylococcus aureus): 8 mg/L (≈ 4.56 µM)
MIC (NRS19; Staphylococcus aureus, NRS19): 0.25 mg/L (≈ 0.142 µM)
MIC (VRS8; Staphylococcus aureus): 16 mg/L (≈ 9.11 µM)
AC50 at 24 h [2]: > 100 µM

CN[C@H](CC(C)C)C(=O)N[C@H]1C(=O)N[C@@H](CC(N)=O)C(=O)N[C@H]2C(=O)N[C@H]3C(=O)N[C@H](C(=O)N[C@H](C(=O)O)c4cc(O)cc(O)c4-c4cc3ccc4O)[C@H](O)c3ccc(c(Cl)c3)Oc3cc2cc(c3O[C@@H]2O[C@H](CO)[C@@H](O)[C@H](O)[C@H]2O[C@H]2C[C@](C)(N)[C@H](O)[C@H](C)O2)Oc2ccc(cc2Cl)[C@H]1O [Vancomycin, reference compound]
MIC (VRS1; Staphylococcus aureus): > 128 mg/L
MIC (VRS3a; Staphylococcus aureus): 64 mg/L (≈ 44.2 µM)
MIC (NRS63SH; Staphylococcus aureus): > 128 mg/L
MIC (VRS4; Staphylococcus aureus): > 128 mg/L
MIC (VRS9; Staphylococcus aureus): > 128 mg/L
MIC (VRSA3b; Staphylococcus aureus): > 128 mg/L
MIC (VRS11b; Staphylococcus aureus): > 128 mg/L
MIC (NRS19; Staphylococcus aureus, NRS19): 4 mg/L (≈ 2.76 µM)
MIC (VRS8; Staphylococcus aureus): > 128 mg/L
AC50 at 24 h [2]: > 100 µM

— patent publication US20230174584A1, “Antibiotic Compounds” (priority 2019, published 2023)
